According to US20240002344A1, “COMPOUNDS, COMPOSITIONS AND METHODS FOR HISTONE LYSINE DEMETHYLASE INHIBITION” (FibroGen, Inc., priority 2020, published 2024):

Key:
recombinant human KDM4A = target: T1, recombinant human KDM4A (Homo sapiens, UniProt O75164); test: 14CO2 capture enzymatic assay (decarboxylation of [1-14C] αKG), KDM4A; format: biochemical; details: 10 μM [1-14C] αKG, 90 μM non-labeled αKG, 50 μM peptide substrate, 37° C., 1 hour, final 1% DMSO
T1 construct: made in house
T1 sequence (O75164 1-359 limits assumed): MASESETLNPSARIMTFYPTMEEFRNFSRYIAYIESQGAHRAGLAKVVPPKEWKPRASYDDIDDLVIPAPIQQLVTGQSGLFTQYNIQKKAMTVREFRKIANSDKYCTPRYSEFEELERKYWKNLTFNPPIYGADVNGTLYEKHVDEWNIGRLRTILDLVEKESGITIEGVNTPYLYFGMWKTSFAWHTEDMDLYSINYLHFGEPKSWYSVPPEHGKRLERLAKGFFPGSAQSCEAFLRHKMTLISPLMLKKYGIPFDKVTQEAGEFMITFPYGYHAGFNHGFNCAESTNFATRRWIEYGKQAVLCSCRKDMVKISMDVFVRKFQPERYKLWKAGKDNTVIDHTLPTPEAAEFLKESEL
Method in brief: (§1)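 Truncated recombinant human KDM5B (H3K4me3 peptide) or KDM4A (H3K9me3 peptide), 50 μM peptide, with 10 μM [1-14C]αKG plus 90 μM unlabeled αKG, 10 μM Fe(SO4), 2 mM ascorbate in pH 7.4 HEPES, 1 h at 37 °C, 1% DMSO. Released 14CO2 trapped on Ba(OH)2 filter; IC50 by non-linear fit.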

recombinant human KDM5B = target: T2, recombinant human KDM5B (Homo sapiens, UniProt Q9UGL1); test: 14CO2 capture enzymatic assay (decarboxylation of [1-14C] αKG), KDM5B; format: biochemical; details: 10 μM [1-14C] αKG, 90 μM non-labeled αKG, 50 μM peptide substrate, 37° C., 1 hour, final 1% DMSO
T2 sequence (Q9UGL1 374-755 limits assumed): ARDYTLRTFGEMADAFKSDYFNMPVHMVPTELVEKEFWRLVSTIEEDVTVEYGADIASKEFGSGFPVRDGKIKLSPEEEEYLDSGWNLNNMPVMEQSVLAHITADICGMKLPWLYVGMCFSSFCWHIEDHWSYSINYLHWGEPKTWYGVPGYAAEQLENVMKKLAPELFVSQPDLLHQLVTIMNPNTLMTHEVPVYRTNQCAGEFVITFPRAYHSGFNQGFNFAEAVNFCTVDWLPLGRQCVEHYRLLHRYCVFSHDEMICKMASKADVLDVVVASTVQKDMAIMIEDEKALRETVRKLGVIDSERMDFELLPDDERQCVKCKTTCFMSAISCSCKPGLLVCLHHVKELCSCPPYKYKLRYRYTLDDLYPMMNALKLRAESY
Method in brief: as §1

IC50 (recombinant human KDM4A) [µM] | IC50 (recombinant human KDM5B) [nM] | SMILES
28 | 180 | N#Cc1cc(Cc2c(Cl)cc(Cl)cc2Cl)nc(C(=O)CCC(=O)O)c1O [Example 144, 4-[4-Cyano-3-hydroxy-6-(2,4,6-trichloro-benzyl)-pyridin-2-yl]-4-oxo-butyric acid]
> 40 | 160 | COc1cc(Cl)c(Cc2cc(C#N)c(O)c(C(=O)CCC(=O)O)n2)c(Cl)c1 [Example 147, 4-[4-Cyano-6-(2,6-dichloro-4-methoxy-benzyl)-3-hydroxy-pyridin-2-yl]-4-oxo-butyric acid]
4.3 | 300 | Cc1cccc(F)c1Cc1cc(C#N)c(O)c(C(=O)CCC(=O)O)n1 [Example 148, 4-[4-Cyano-6-(2-fluoro-6-methyl-benzyl)-3-hydroxy-pyridin-2-yl]-4-oxo-butyric acid]
1.5 | 500 | Cc1cc(F)cc(C)c1Cc1cc(C#N)c(O)c(C(=O)CCC(=O)O)n1 [Example 151, 4-[4-Cyano-6-(4-fluoro-2,6-dimethyl-benzyl)-3-hydroxy-pyridin-2-yl]-4-oxo-butyric acid]
9.7 | 450 | Cc1cc(Cl)cc(C)c1Cc1cc(C#N)c(O)c(C(=O)CCC(=O)O)n1 [Example 152, 4-[4-Cyano-6-(4-chloro-2,6-dimethyl-benzyl)-3-hydroxy-pyridin-2-yl]-4-oxo-butyric acid]
17 | 320 | Cc1cc(C#N)cc(C)c1Cc1cc(C#N)c(O)c(C(=O)CCC(=O)O)n1 [Example 153, 4-[4-Cyano-6-(4-cyano-2,6-dimethyl-benzyl)-3-hydroxy-pyridin-2-yl]-4-oxo-butyric acid]
1.4 | 260 | Cc1noc(C)c1Cc1cc(C#N)c(O)c(C(=O)CCC(=O)O)n1 [Example 154, 4-[4-Cyano-6-(3,5-dimethyl-isoxazol-4-ylmethyl)-3-hydroxy-pyridin-2-yl]-4-oxo-butyric acid]
34 | 180 | Cc1ccc(Cl)c(Cc2cc(C#N)c(O)c(C(=O)CCC(=O)O)n2)c1Cl [Example 155, 4-[4-Cyano-6-(2,6-dichloro-3-methyl-benzyl)-3-hydroxy-pyridin-2-yl]-4-oxo-butyric acid]

Second part, the molecule before the results:

SMILES | IC50 (recombinant human KDM4A) [µM] | IC50 (recombinant human KDM5B) [nM]
N#Cc1cc(Oc2ccccc2Cl)cc(C(=O)CCC(=O)O)c1O [Example 136, 4-[5-(2-Chloro-phenoxy)-3-cyano-2-hydroxy-phenyl]-4-oxo-butyric acid] | > 40 | 370
N#Cc1cc(Oc2ccc(Cl)cc2)cc(C(=O)CCC(=O)O)c1O [Example 137, 4-[5-(4-Chloro-phenoxy)-3-cyano-2-hydroxy-phenyl]-4-oxo-butyric acid] | > 40 | 820
N#Cc1cc(Oc2cccc(Cl)c2)cc(C(=O)CCC(=O)O)c1O [Example 138, 4-[5-(3-Chloro-phenoxy)-3-cyano-2-hydroxy-phenyl]-4-oxo-butyric acid] | > 40 | 390
Cc1ccc(Oc2cc(C#N)c(O)c(C(=O)CCC(=O)O)c2)cc1 [Example 139, 4-(3-Cyano-2-hydroxy-5-p-tolyloxy-phenyl)-4-oxo-butyric acid] | > 40 | 560
Cc1ccccc1Oc1cc(C#N)c(O)c(C(=O)CCC(=O)O)c1 [Example 140, 4-(3-Cyano-2-hydroxy-5-o-tolyloxy-phenyl)-4-oxo-butyric acid] | > 40 | 330
COc1ccc(Oc2cc(C#N)c(O)c(C(=O)CCC(=O)O)c2)cc1 [Example 141, 4-[3-Cyano-2-hydroxy-5-(4-methoxy-phenoxy)-phenyl]-4-oxo-butyric acid] | > 40 | 250
N#Cc1cc(Oc2ccc(F)cc2)cc(C(=O)CCC(=O)O)c1O [Example 142, 4-[3-Cyano-5-(4-fluoro-phenoxy)-2-hydroxy-phenyl]-4-oxo-butyric acid] | > 40 | 280
N#Cc1cc(Cc2c(Cl)cc(OC(F)(F)F)cc2Cl)nc(C(=O)CCC(=O)O)c1O [Example 143, 4-[4-Cyano-6-(2,6-dichloro-4-trifluoromethoxy-benzyl)-3-hydroxy-pyridin-2-yl]-4-oxo-butyric acid] | > 40 | 230
N#Cc1cc(Cc2c(Cl)cc(C(F)(F)F)cc2Cl)nc(C(=O)CCC(=O)O)c1O [Example 145, 4-[4-Cyano-6-(2,6-dichloro-4-trifluoromethyl-benzyl)-3-hydroxy-pyridin-2-yl]-4-oxo-butyric acid] | > 40 | 360
N#Cc1cc(Cc2ccccc2Cc2ccccc2)nc(C(=O)CCC(=O)O)c1O [Example 146, 4-[6-(2-Benzyl-benzyl)-4-cyano-3-hydroxy-pyridin-2-yl]-4-oxo-butyric acid] | 39 | 140
N#Cc1cc(Cc2c(Cl)ccc(F)c2Cl)nc(C(=O)CCC(=O)O)c1O [Example 149, 4-[4-Cyano-6-(2,6-dichloro-3-fluoro-benzyl)-3-hydroxy-pyridin-2-yl]-4-oxo-butyric acid] | 3.7 | 70
COc1cccc(F)c1Cc1cc(C#N)c(O)c(C(=O)CCC(=O)O)n1 [Example 150, 4-[4-Cyano-6-(2-fluoro-6-methoxy-benzyl)-3-hydroxy-pyridin-2-yl]-4-oxo-butyric acid] | 27 | 280
N#Cc1cc(Cc2c(Cl)ccc(Cl)c2Cl)nc(C(=O)CCC(=O)O)c1O [Example 156, 4-[4-Cyano-3-hydroxy-6-(2,3,6-trichloro-benzyl)-pyridin-2-yl]-4-oxo-butyric acid] | 11 | 70
N#Cc1nc(-c2ccccc2)cc(C(=O)CCC(=O)O)c1O [Example 157, 4-(2-Cyano-3-hydroxy-6-phenyl-pyridin-4-yl)-4-oxo-butyric acid] | > 40 | 1400
N#Cc1cc(NC(=O)c2ccccc2)nc(C(=O)CCC(=O)O)c1O [Example 158, 4-(6-Benzoylamino-4-cyano-3-hydroxy-pyridin-2-yl)-4-oxo-butyric acid] | > 40 | 80
CN(C(=O)c1ccccc1)c1cc(C#N)c(O)c(C(=O)CCC(=O)O)n1 [Example 159, 4-[6-(Benzoyl-N-methyl-amino)-4-cyano-3-hydroxy-pyridin-2-yl]-4-oxo-butyric acid] | > 40 | 990
N#Cc1nc(Cc2ccccc2)cc(C(=O)CCC(=O)O)c1O [Example 160, 4-(6-Benzyl-2-cyano-3-hydroxy-pyridin-4-yl)-4-oxo-butyric acid] | > 40 | 2000
